System: phospho-Tau
Test: Phospho-Tau assay using cultured rat cortical neurons (okadaic acid insult)
Format: cell-based
Settings: 30 nM okadaic acid; for Tau phosphorylated at Ser202/Thr205: 50 μM pretreatment; for Tau phosphorylated at Ser202/Thr205 / Tau phosphorylated at Ser396: rat cortical neurons; for hyperphosphorylation of Tau (pTau accumulation) induced by okadaic acid / Tau phosphorylated at Ser396: pretreatment; for hyperphosphorylation of Tau (pTau accumulation) induced by okadaic acid: rat cortical cultures, FIG. 14 and 15B
Description: Phospho-Tau Assay Using Cultured Rat Cortical Neurons. Primary cortical cell cultures were prepared as described previously.^2 Briefly, pregnant Sprague Dawley dams were euthanized at embryonic day 18 (E18), and the cortices of the pups were harvested. Cells were plated on poly-d-lysine coated plates at 15,000 cells per well. Cultures were maintained at 37° C. under an atmosphere containing 5% CO2. Plating media consisted of 10% heat-inactivated fetal bovine serum (FBS; Fisher) 1% penicillin-streptomycin (Fisher), and 0.5 mM glutamine (Life Technologies) in Neurobasal (Fisher). After 16-24 h, media was exchanged for replacement media consisting of IX B27 supplement (Fisher), 1% penicillin-streptomycin, 0.5 mM glutamine, and 12.5 μM glutamate in Neurobasal. On DIV6 and DIV13, 50% of media was removed, and feeding media containing 1×B27 supplement, 1% penicillin-streptomycin, 0.5 mM glutamine in Neurobasal was added with an additional 20% volume added to account for evaporation. On DIV14, the volume of each well was adjusted to 180 μL. Next, 1000× solutions of compounds in DMSO were diluted 1:100 into Neurobasal and 20 μL of the resulting solutions was added to the appropriate wells (total dilution=1:1000, 0.1% DMSO). For wells that were not treated with compounds, DMSO was diluted 1:100 into Neurobasal and 20 μL of the resulting solution was added to the appropriate wells. All treatments were randomized. After 24 h, 20 μL was removed from each well. […] After 1 h, neurons were fixed by removing 80% of the media and replacing it with a volume of 4% aqueous paraformaldehyde (ThermoFisher) equal to 50% of the working volume of the well. Then, the cells were incubated at room temperature for 15 min before the fixative was aspirated and each well was washed twice with DPBS. Cells were permeabilized using 0.2% Triton X-100 (ThermoFisher) in DPBS for 15 min at room temperature without shaking. Plates were blocked with blocking buffer (2% bovine serum albumin and […] in DPBS) overnight at 4° C. Then, plates were incubated overnight at 4° C. with gentle shaking in antibody dilution buffer (ADB) (1% bovine serum albumin and […] in DBPS) containing a chicken anti-MAP2 antibody (1:10,000; EnCor, CPCA-MAP2), guinea pig anti-Tau antibody (1:1000; Synaptic Systems), mouse anti-phosphoTau (Ser202/Thr205) antibody (1:1000; Invitrogen), and rabbit anti-phosphoTau (Ser396) antibody (1:1000; Invitrogen). Plates were washed twice with DPBS and once with ADB before being incubated for 1 h at room temperature in ADB containing an anti-chicken IgY secondary antibody conjugated to Alexa Fluor™ Plus 800 (1:1000; Invitrogen), an anti-mouse IgG secondary antibody conjugated to Alexa Fluor™ Plus 680 (1:1000; Invitrogen), an anti-guinea pig IgG secondary antibody conjugated to Alexa Fluor™ 596 (1:1000; Invitrogen), and an anti-rabbit IgG secondary antibody conjugated to Alexa Fluor™ Plus 488 (1:1000; Invitrogen). Plates were washed three times with DBPS, and after the final wash, 100 μL of DPBS was added per well before imaging on a CellInsight™ CX7 High Content Analysis imager at 20× with 12 ROIs taken per well with no bias to location and no overlap of the ROIs. Images were analyzed using Cellnomics Scan software (version 6.6.2). The compartmental analysis assay was used to measure the average intensity of each channel per field and determine the reported intensity ratios.

SMILES | Tau phosphorylated at Ser202/Thr205 | hyperphosphorylation of Tau (pTau accumulation) induced by okadaic acid | Tau phosphorylated at Ser396
COc1ccc2c3ccnc(C)c3n(CCN(C)C)c2c1.O=C(O)/C=C/C(=O)O [HTW_A_8 fumarate, 2-(7-methoxy-1-methyl-9H-pyrido[3,4-b]indol-9-yl)-N,N-dimethylethan-1-amine Fumarate Salt (2:3)] | can block an increase in Tau phosphorylated at Ser202/Thr205 | blocks hyperphosphorylation of Tau | no reduction
COc1ccc2c(c1)N(CCN(C)C)/C(=C/C(C)=O)S2.O=C(O)/C=C/C(=O)O [HTW_B_14 fumarate, (Z)-1-(3-(2-(dimethylamino)ethyl)-5-methoxybenzo[d]thiazol-2(3H)-ylidene)propan-2-one Fumarate Salt (1:1)] | not observed |  | no reduction
COc1ccc2c(c1)[nH]c1c(C)nccc12 [Harmine, harmine] |  | prevents pTau accumulation in cortical neurons | 

Source: patent US20260284018A1, “DUAL INHIBITORS OF DYRK1A AND 5-HT2 FOR TREATING A BRAIN DISORDER” (THE REGENTS OF THE UNIVERSITY OF CALIFORNIA, priority 2023, published 2026)
